Read-outs that look alike come from different tables or passages of the source.
Legend:
[1] = target: T1, S1Rs (Rattus norvegicus, UniProt Q9R0C9); experiment: Ex vivo autoradiography of rat brain and muscle sections; format: in vivo; settings: baseline
[2] = Stability in human liver microsomes; format: in vitro ADME; settings: errors SEM
[3] = Ex vivo stability in rat plasma and brain homogenates
[4] = mouse liver microsomes; errors SEM; previously reported; cited from earlier work
[5] = test system: S1Rs
[6] = monkey plasma
[7] = Ex vivo biodistribution in rats; settings: rat
[8] = cited from earlier work
[9] = test system: S2Rs; settings: no reference given, cited from earlier work
[10] = target: T1, S1Rs; experiment: Blocking biodistribution in rats pretreated with S1R ligands; format: in vivo; settings: pretreatment 1 mg/kg
[11] = target: T1, S1Rs; experiment: Rat brain PET/CT imaging, baseline and BD1047 blocking; format: in vivo; settings: BD1047 1 mg/kg i.v. 10 min before tracer; 50–60 min after injection
[12] = target: S1Rs; settings: cited from earlier work
[13] = test system: 5-HT2 receptors; settings: no reference given; cited from earlier work
[14] = 5 min after injection, i.v., n = 4

T1 sequence (Q9R0C9 whole entry): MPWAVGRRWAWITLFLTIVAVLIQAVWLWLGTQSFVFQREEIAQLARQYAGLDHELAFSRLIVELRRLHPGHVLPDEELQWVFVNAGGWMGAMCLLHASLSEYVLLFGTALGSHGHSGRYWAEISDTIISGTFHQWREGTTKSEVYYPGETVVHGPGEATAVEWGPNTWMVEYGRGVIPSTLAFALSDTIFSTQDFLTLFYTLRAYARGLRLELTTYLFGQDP

O=c1sc2cc(CCC[18F])ccc2n1CCN1CCCCCC1 [^18F-FTC-146]
uptake in corpus callosum and muscle (autoradiography) [1]: little, if any, uptake
t1/2 [2]: 18.2 ± 3.6 min
percentage intact radiotracer in plasma ([3]; 15 min after injection): 27.1% ± 5.3%
percentage intact radiotracer in plasma ([3]; 30 min after injection): 25.3% ± 1.3%
percentage intact radiotracer in plasma ([3]; 60 min after injection): 19.5% ± 4.4%
t1/2 [4]: 4.2 ± 0.6 min
average maximum uptake in all analyzed brain regions ([5]; monkey, in vivo, 0.25 h): approximately 0.4 %ID/g
uptake in cerebellum ([5]; monkey, in vivo, 1 h): 0.27 %ID/g
uptake in occipital cortex ([5]; monkey, in vivo, 1 h): 0.27 %ID/g
uptake in striatum ([5]; monkey, in vivo, 1 h): 0.20 %ID/g
brain uptake level after gradual washout ([5]; monkey, in vivo, 2 h): approximately 0.25 %ID/g
intact ^18F-FTC-146 in plasma ([6]; 5 min): 60%
intact ^18F-FTC-146 in plasma ([6]; 15 min): 35%
intact parent tracer in plasma (lower plateau) ([6]; between 50 and 110 min): 15%
time of peak uptake in the brain [7]: 15 min
uptake in kidney [7, 14]: 2.14 ± 0.29 %ID/g
uptake in lung [7, 14]: 4.91 ± 0.63 %ID/g
uptake in pancreas [7, 14]: 1.58 ± 0.21 %ID/g
uptake in spleen [7, 14]: 1.34 ± 0.35 %ID/g
decrease of accumulation in the lungs ([7]; from 5 to 60 min after injection): 75%
uptake in blood and muscle ([7]; throughout the duration of the study): Negligible uptake
washout of radiotracer uptake in pancreas, liver, and spleen ([7]; throughout the study (5-60 min)): did not significantly wash out

COc1ccc(CCN2CCN(CCCc3ccccc3)CC2)cc1OC [^11C-SA4503]
unchanged radioligand in monkey plasma ([8]; 90 min after injection): 31%

CN(C)CCN(C)CCc1ccc(Cl)c(Cl)c1 [BD1047]
fold lower affinity for S2Rs than for S1Rs [9]: approximately 50 fold
Ki ([9]; read-out: Ki for S2Rs): 47 nM
radioactive signal in bone/skull of pretreated rats compared with baseline rats ([10]; 60 min after injection): did not display this same trend
reduction in radiotracer binding in liver, pancreas, and heart ([10]; P < 0.05, < 0.05, < 0.005): significant reduction
reduction in ^18F-FTC-146 accumulation in rat brain (PET/CT) [11]: 86%
Ki ([12]; read-out: Ki for S1Rs, no reference given): 0.93 nM
affinity for 5-HT2 receptors [13]: low micromolar affinity

O=c1sc2cc(CCCF)ccc2n1CCN1CCCCCC1 [^18F-FTC-146]
Ki ([12]; read-out: affinity for S1Rs, in vitro binding): 0.0025 nM

O=C(CCCN1CCC(O)(c2ccc(Cl)cc2)CC1)c1ccc(F)cc1 [haloperidol, reference compound]
decrease of ^18F-FTC-146 binding in occipital cortex ([5]; haloperidol 0.1 mg/kg 10 min before radioligand, 60–75 min after injection): 53%

COc1cc(CCN2CCN(CCCc3ccccc3)CC2)ccc1OCC[18F] [^18F-FE-SA4503]
parent compound present in monkey plasma ([8]; 120 min after injection of tracer): 23%

O=c1sc2cc(CCCF)ccc2n1CCN1CCCCCC1 [FTC-146]
t1/2 [2]: 18.2 min
